In patent US11026426B2, “Oxadiazole and phenol derivatives as antibacterial and/or herbicidal agents” (NORTHERN ILLINOIS RESEARCH FOUNDATION, priority 2017, dated 2021):

What was measured:
[1] = molecular target: T1, Mycobacterium tuberculosis IspD (MtIspD) (Mycobacterium tuberculosis, UniProt P9WKG9); assay: Thermal shift assay against MtIspD; type: binding
T1 sequence (P9WKG9 1-231): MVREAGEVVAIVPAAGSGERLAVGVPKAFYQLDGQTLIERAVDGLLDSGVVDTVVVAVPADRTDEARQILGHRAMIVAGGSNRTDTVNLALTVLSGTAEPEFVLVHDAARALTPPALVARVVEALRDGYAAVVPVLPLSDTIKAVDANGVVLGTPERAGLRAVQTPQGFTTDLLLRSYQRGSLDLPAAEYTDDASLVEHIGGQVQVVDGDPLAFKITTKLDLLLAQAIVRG

[2] = molecular target: Lycopersicon esculentum IspE (LeIspE) (Solanum lycopersicum, UniProt P93841); assay: Thermal shift assay against LeIspE; type: binding
lettuce seeds = assay: Lettuce leaf assay; type: in vivo; parameters: key: 0 (no effect); 5(complete inhibition or bleaching); conditions: ranking 0-5
Description: The lettuce leaf assay is a qualitative assay used to determine the relative effectiveness of the test compounds at inhibition of germination of seeds and root development as well as causing bleaching of leaves. Isoprenoid synthesis is vital in plants as isoprene-product gibberellins are a class of growth hormones in plants responsible for stimulating cell elongation and division. In addition, some carotenoids are involved in photosynthesis as components of the electron transport chain. MEP pathway inhibitors have the potential to prevent synthesis of these necessary cellular components and growth hormones resulting in inhibition of germination and root development as well as causing chlorosis, or bleaching in the leaves. The lettuce leaf assay, explores the effects of compounds as potential MEP pathway inhibitors by evaluating the effect on bleaching, root development, and germination of lettuce seeds, which all rely on isoprenoid biosynthesis. […] The assay is a qualitative assay and the effects are given rankings from 0 (no effect) to 5 (complete inhibition or bleaching). In this assay, compounds are dissolved in a volatile organic solvent and applied to filter paper in a petri dish. The solvent is allowed to evaporate and lettuce seeds are applied followed by the addition of 5 mL of water to obtain the necessary concentrations. Seeds are allowed to grow and they are observed on day 3 and day 4 for evaluation.

AtIspD = AtIspD (Arabidopsis thaliana, UniProt P69834); assay: University of Hamburg photometric enzymatic inhibition assay AtIspD; type: biochemical; conditions: read-out: AtIspD IC50
Outline: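 Coupled photometric assay: 2.4 mU AtIspD with 1 mM (2R,3S)-2,3-dihydroxy-4-oxopentyl phosphate, 2.1 mM CTP, excess IspE (0.4 U), ATP, pyruvate kinase/lactate dehydrogenase and 460 μM NADH. Run in 100 mM Tris-HCl pH 8.0, 10 mM MgCl2, 1 mM DTT, 1.1% DMSO at 27 °C, monitored photometrically.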

LeIspE = LeIspE (Solanum lycopersicum, UniProt P93841); assay: University of Hamburg photometric enzymatic inhibition assay LeIspE; type: biochemical, Lycopersicon esculentum; conditions: read-out: LeIspE IC50
Outline: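 Photometric coupled assay with pyruvate kinase/lactate dehydrogenase following NADH (460 μM). Mix: 100 mM Tris-HCl pH 8.0, 10 mM MgCl2, 1 mM DTT, 2.5 mM phosphoenolpyruvate, 2 mM ATP, 1 mM 4-diphosphocytidyl-2-C-methylerythritol, 1.1% DMSO, 2.4 mU IspE; incubated at 27° C.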

AtIspF = AtIspF (Arabidopsis thaliana, UniProt Q9CAK8); assay: University of Hamburg photometric enzymatic inhibition assay AtIspF; type: biochemical; conditions: read-out: AtIspF IC50
Outline: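 Coupled photometric assay (CMP kinase/pyruvate kinase/lactate dehydrogenase, NADH consumption) with 2.4 mU AtIspF and 1 mM 4-diphosphocytidyl-2C-methylerythritol 2-phosphate, 2 mM ATP, in 100 mM Tris-HCl pH 8.0, 10 mM MgCl2, 1.1% DMSO. Monitored at 27 °C.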

[3] = system: Burkholderia thailandensis; type: cell-based; conditions: preliminary screening; for BT score: score 0-3
Mycobacterium smegmatis = assay: Antibacterial preliminary screening MS; type: cell-based; conditions: for MS score: score 0-3
Corynebacterium xerosis = assay: Antibacterial preliminary screening CX; type: cell-based; conditions: score 0-3; also: key: 0 represents no inhibition; 3 is comparable to commercial antibiotic control
[4] = system: Corynebacterium pseudodiphtheriae; assay: Antibacterial preliminary screening CP; type: cell-based; conditions: score 0-3;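 also: 0 is no inhibition and 3 matches the commercial antibiotic control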
Escherichia coli = assay: Antibacterial preliminary screening EC; type: cell-based; conditions: score 0-3; also: key: 0 represents no inhibition; 3 is comparable to commercial antibiotic control
Klebsiella pneumonia = assay: Antibacterial preliminary screening KP; type: cell-based; conditions: score 0-3; also: key: 0 represents no inhibition; 3 is comparable to commercial antibiotic control
Micrococcus luteus = assay: Antibacterial preliminary screening ML; type: cell-based; conditions: score 0-3; also: key: 0 represents no inhibition; 3 is comparable to commercial antibiotic control
Bacillus cereus = assay: Antibacterial preliminary screening BC; type: cell-based; conditions: score 0-3; also: key: 0 represents no inhibition; 3 is comparable to commercial antibiotic control
Pseudomonas aeruginosa = assay: Antibacterial preliminary screening PA; type: cell-based; conditions: for PA score: score 0-3

Sequence of AtIspD (P69834 62-302): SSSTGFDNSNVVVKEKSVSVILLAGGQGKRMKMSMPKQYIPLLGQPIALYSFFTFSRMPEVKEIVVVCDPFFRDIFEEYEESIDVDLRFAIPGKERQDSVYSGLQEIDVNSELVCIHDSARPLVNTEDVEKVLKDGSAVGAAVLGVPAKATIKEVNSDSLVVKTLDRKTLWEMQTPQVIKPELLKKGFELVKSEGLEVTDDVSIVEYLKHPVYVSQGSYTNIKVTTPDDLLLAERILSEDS
Sequence of AtIspF (Q9CAK8 53-231): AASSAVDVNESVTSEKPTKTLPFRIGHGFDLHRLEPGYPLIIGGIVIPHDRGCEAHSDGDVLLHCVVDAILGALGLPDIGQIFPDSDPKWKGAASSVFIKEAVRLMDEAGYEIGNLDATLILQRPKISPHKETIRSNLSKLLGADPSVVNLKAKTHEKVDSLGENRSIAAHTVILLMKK
Sequence of LeIspE (P93841 89-401): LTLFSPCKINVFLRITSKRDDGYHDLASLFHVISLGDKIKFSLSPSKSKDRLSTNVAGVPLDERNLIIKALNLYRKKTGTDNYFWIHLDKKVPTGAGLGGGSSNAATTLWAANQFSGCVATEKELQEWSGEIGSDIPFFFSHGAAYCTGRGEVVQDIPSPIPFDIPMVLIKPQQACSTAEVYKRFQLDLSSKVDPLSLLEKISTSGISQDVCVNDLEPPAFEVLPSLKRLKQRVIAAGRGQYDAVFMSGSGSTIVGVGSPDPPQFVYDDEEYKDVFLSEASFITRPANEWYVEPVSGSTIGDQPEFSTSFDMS
Sequence of Lycopersicon esculentum IspE (LeIspE) (P93841 89-401): as above

SMILES	MtIspD melting temp [1] [°C]	LeIspE melting point change [2] [°C]	LeIspE melting temp [2] [°C]	IC50 (AtIspD) [µM]	IC50 (LeIspE) [µM]	IC50 (AtIspF) [µM]	BT score [3]	MS score (Mycobacterium smegmatis)	CX score (Corynebacterium xerosis)	CP score [4]	EC score (Escherichia coli)	KP score (Klebsiella pneumonia)	ML score (Micrococcus luteus)	BC score (Bacillus cereus)	PA score (Pseudomonas aeruginosa)	melting point [°C]	MtIspD melting point change [1] [°C]	Bleaching (lettuce seeds; 0.15 mM)	Germination (lettuce seeds; 0.15 mM)	Root Dev. (lettuce seeds; 0.15 mM)	also measured
CC(C)(C)c1nnc(-c2cc3ccccc3[nH]2)o1 [HGN-239, 2-(tert-butyl)-5-(1H-indol-2-yl)-1,3,4-oxadiazole]	49.5	−2.50	47.00	> 1000	> 1000	> 1000	0	0	0	0	0	0	0	0	0	163 to 168					Bleaching (lettuce seeds; 0.5 mM): 0; Germination (lettuce seeds; 0.5 mM): 0; Root Dev. (lettuce seeds; 0.5 mM): 0; Bleaching (lettuce seeds; 1.0 mM): 0; Germination (lettuce seeds; 1.0 mM): 1; Root Dev. (lettuce seeds; 1.0 mM): 0
C(=C\c1nnc(-c2nc3ccccc3s2)o1)/c1ccccc1 [HGN-335, (E)-2-(benzo[d]thiazol-2-yl)-5-styryl-1,3,4-oxadiazole]	48.5	−1.50	48.00	> 500	> 500	> 500	0	0	0	0	0	0	0	0	1	202 to 204	0.5				Bleaching (lettuce seeds; 0.1 mM): 0; Germination (lettuce seeds; 0.1 mM): 0; Root Dev. (lettuce seeds; 0.1 mM): 0; Bleaching (lettuce seeds; 0.2 mM): 0; Germination (lettuce seeds; 0.2 mM): 0; Root Dev. (lettuce seeds; 0.2 mM): 0; effectiveness against Pseudomonas aeruginosa (Pseudomonas aeruginosa): slightly effective
CCc1nnc(-c2cc3ccccc3[nH]2)o1 [HGN-250, 2-ethyl-5-(1H-indol-2-yl)-1,3,4-oxadiazole]	48.8	−2.75	46.75	> 1000	> 1000	> 1000	0	0	0	0	0	0	0	0	0	138 to 143	0.8				Bleaching (lettuce seeds; 0.5 mM): 0; Germination (lettuce seeds; 0.5 mM): 1; Root Dev. (lettuce seeds; 0.5 mM): 0; Bleaching (lettuce seeds; 1.0 mM): 0; Germination (lettuce seeds; 1.0 mM): 3; Root Dev. (lettuce seeds; 1.0 mM): 0
Oc1c(Br)cc(Br)cc1-c1cc2ccccc2[nH]1 [HGN-340, 2,4-dibromo-6-(1H-indol-2-yl)phenol]	49.3	0.50	50.00	50	> 500	470 ± 116	0	0	0	0	0	0	0	2	0	104 to 110	1.3	0	0	0	Bleaching (lettuce seeds; 0.3 mM): 0; Germination (lettuce seeds; 0.3 mM): 0; Root Dev. (lettuce seeds; 0.3 mM): 0; effectiveness against Pseudomonas aeruginosa (Pseudomonas aeruginosa): moderately effective
Cc1ccc(-c2nnc(-c3nc4ccccc4s3)o2)cc1 [HGN-338, 2-(benzo[d]thiazol-2-yl)-5-(p-tolyl)-1,3,4-oxadiazole]	48.0	−1.50	48.00	> 500	> 500	> 500	0	0	0	0	0	0	0	0	0	155 to 160	0.0	0	0	0	Bleaching (lettuce seeds; 0.3 mM): 0; Germination (lettuce seeds; 0.3 mM): 1; Root Dev. (lettuce seeds; 0.3 mM): 0
Clc1cccc(-c2nnc(-c3cc4ccccc4[nH]3)o2)c1 [HGN-241, 2-(3-chlorophenyl)-5-(1H-indol-2-yl)-1,3,4-oxadiazole]	48.5	−1.75	47.75	> 1000	149 ± 41	> 1000	0	0	0	0	0	0	0	0	0	202 to 207	0.5				Bleaching (lettuce seeds; 0.2 mM): 0; Germination (lettuce seeds; 0.2 mM): 1; Root Dev. (lettuce seeds; 0.2 mM): 0
FC(F)(F)c1ccc(-c2nnc(-c3nc4ccccc4[nH]3)o2)cc1 [HGN-422, 2-(1H-benzo[d]imidazol-2-yl)-5-(4-(trifluoromethyl)phenyl)-1,3,4-oxadiazole]	49.0	−3.25	46.25	251	267	> 500	1	1	0	0	0	0	0	0	0	275 to 280	1.0	0	0	0	Bleaching (lettuce seeds; 0.3 mM): 0; Germination (lettuce seeds; 0.3 mM): 0; Root Dev. (lettuce seeds; 0.3 mM): 0; antibacterial activity against Burkholderia thailandensis [3]: slight antibacterial activity; antibacterial activity against Mycobacterium smegmatis (Mycobacterium smegmatis): slight antibacterial activity
COc1ccc(-c2nnc(-c3nc4ccccc4s3)o2)cc1 [HGN-336, 2-(benzo[d]thiazol-2-yl)-5-(4-methoxyphenyl)-1,3,4-oxadiazole]	49.5	−1.25	48.25	> 500	493 ± 49	> 500	0	0	0	0	0	0	0	0	0	167 to 169		0	1	0	Bleaching (lettuce seeds; 0.3 mM): 0; Germination (lettuce seeds; 0.3 mM): 0; Root Dev. (lettuce seeds; 0.3 mM): 0
